Here are results for 4 compounds from patent publication US9232793B2, “Methods of inhibiting microbial growth using deoxyaldohexoses” (LVMH Recherche, priority 2008, dated 2016).

Test in all cases: Agar diffusion antimicrobial test, MIC determination
Format in all cases: cell-based
A general note: A growth-free zone around the sample is the usual read-out of agar diffusion tests.

For experiment [1], the system named is Staphylococcus aureus CIP 4.83. The following applies: S. aureus. The procedure: (§1) The culture medium at pH 6, pH 7 and pH 8, inoculated beforehand with the test strains, is poured into Petri dishes, with one pH and one strain per dish. After solidification, 100 μl are deposited for each of the concentrations of the test substance, as well as a solvent control and a positive control. After incubation, the inhibition diameter is measured after diffusion of the test product into the agar, and there is deduced therefrom the minimum bacteriostatic concentration (MIC), which is the lowest concentration of product inhibiting the multiplication of the microbes. The test strains are the following: • Aspergillus niger IP 1431.83, • Candida albicans IP 48.72, • Enterococcus hirae CIP 58.55, • Staphylococcus aureus CIP 4.83, • Burkholdena cepacia CIP 103924, • Pseudomonas aeruginosa CIP 82.1118. For each strain, 120 ml of each of the three Mueller Hinton media pH 6, pH 7 and pH 8 are inoculated with 1.2 ml of each suspension of microbe having a titre of 10^7 CFU/ml in order to obtain a titre equal to 10^5 CFU/ml. 15 ml are poured into each dish, with one dish per medium and per strain. After solidification, three steel cylinders are placed at the surface of each dish. 100 mg (approximately) of the powder consisting of the test alkyl glycoside are taken up in 1 ml of methanol (solution A at 10%). Next, the concentration range is prepared as described below: • Solution B1 at 1%: 300 μl of solution A+2.7 ml of sterile water, • Solution B2 at 0.5%: 300 μl of solution A+5.7 ml of sterile water, • Solution B3 at 0.1%: 1 ml of solution B1+9 ml of sterile water, • Solution B4 at 0.05%: 1 ml of solution B2+9 ml of sterile water. Only solutions B2, B3 and B4 are tested during the trial. 100 μl (pH 6, pH 7 and pH 8) of the following solutions are introduced into each cylinder: • Methanol control (prepared for each strain at pH 7), • Solution B4 at 0.05%, • Solution B3 at 0.1%, • Solution B2 at 0.5%. Incubation at 37° C.±1° C. for 24 hours (48 h for Enterococcus hirae). The inhibition of growth of the microbes leads to measurement, using a vernier caliper, in millimeters, of an inhibition diameter after diffusion of the test product into the agar. The minimum bacteriostatic concentration (MIC) is given by the lowest concentration of product which inhibits the multiplication of the microbes. In the case where the highest concentration ([…]) is not active, this is noted (>500). The tests were carried out on various strains at pH 7, for alkyl glycoside concentrations equal to 0.05%, 0.1% and 0.5% by weight.

Experiment [2] relates to Pseudomonas aeruginosa CIP 82.1118. The following applies: P. aeruginosa. The procedure: as §1
Experiment [3] concerns Aspergillus niger IP 1431.83. The following applies: A. niger. The procedure:
as §1

In experiment [4] the test system is Candida albicans IP 48.72. The settings on record: C. albicans. The procedure:
as §1

Experiment [5] concerns Enterococcus hirae CIP 58.55. The settings on record: E. hirae. On the procedure: as §1
The subject of experiment [6] is Burkholdena cepacia CIP 103924. The following applies: B. cepacia. On the procedure:
as §1

For `CCCCCCCCO[C@H]1O[C@@H](C)[C@@H](O)[C@@H](O)[C@@H]1O` [Fuc-8, octyl beta-L-fucoside], the MIC (as a rule, the smallest concentration in the dilution series that meets the test's criterion for growth inhibition) in experiment [1] (pH 7) was 50 µg/mL; in experiment [1] (pH 7, value in brackets), 181 µM; in experiment [2] (pH 7), over 500 µg/mL; in experiment [2] (pH 7, value in brackets), over 1810 µM; in experiment [3] (pH 7), 50 µg/mL; in experiment [3] (pH 7, value in brackets) it was 181 µM. The minimum inhibitory concentration (MIC) in experiment [4] (pH 7) is 100 µg/mL; in experiment [4] (pH 7, value in brackets) it was 362 µM; in experiment [5] (pH 7), 50 µg/mL; in experiment [5] (pH 7, value in brackets) it was 181 µM; in experiment [6] (pH 7) it was over 500 µg/mL; in experiment [6] (pH 7, value in brackets), over 1810 µM.

Turning to `CCCCCCCCCCCCO[C@H]1O[C@@H](C)[C@@H](O)[C@@H](O)[C@@H]1O` [Fuc-12, dodecyl beta-L-fucoside], the MIC in experiment [1] (pH 7) was 50 µg/mL; in experiment [1] (pH 7, value in brackets), 150 µM; in experiment [2] (pH 7), over 500 µg/mL; in experiment [2] (pH 7, value in brackets), over 1500 µM; in experiment [3] (pH 7) it was 50 µg/mL; in experiment [3] (pH 7, value in brackets) it was 150 µM. For the same compound, the MIC in experiment [4] (pH 7) was over 500 µg/mL; in experiment [4] (pH 7, value in brackets) it was over 1500 µM; in experiment [5] (pH 7) it was 50 µg/mL; in experiment [5] (pH 7, value in brackets), 150 µM; in experiment [6] (pH 7), over 500 µg/mL; in experiment [6] (pH 7, value in brackets) it was over 1500 µM.

As for `CCCCCCCCOC1O[C@@H](C)[C@H](O)[C@@H](O)[C@H]1O` (stereo partly drawn) [Rha-8, octyl L-rhamnoside], the MIC was found to be 50 µg/mL in experiment [1] (pH 7); 181 µM in experiment [1] (pH 7, value in brackets); 100 µg/mL in experiment [2] (pH 7); 362 µM in experiment [2] (pH 7, value in brackets); 50 µg/mL in experiment [3] (pH 7); 181 µM in experiment [3] (pH 7, value in brackets). In addition, the MIC in experiment [4] (pH 7) came out at 100 µg/mL; in experiment [4] (pH 7, value in brackets), 362 µM; in experiment [5] (pH 7), 50 µg/mL; in experiment [5] (pH 7, value in brackets) it was 181 µM; in experiment [6] (pH 7), 100 µg/mL; in experiment [6] (pH 7, value in brackets), 362 µM.

For the compound `CCCCCCCCCCCCOC1O[C@@H](C)[C@H](O)[C@@H](O)[C@H]1O` (stereo partly drawn) [Rha-12, dodecyl L-rhamnoside], the MIC in experiment [1] (pH 7) is 50 µg/mL; in experiment [1] (pH 7, value in brackets) it was 150 µM; in experiment [2] (pH 7) it was 50 µg/mL; in experiment [2] (pH 7, value in brackets), 150 µM; in experiment [3] (pH 7), 50 µg/mL; in experiment [3] (pH 7, value in brackets) it was 150 µM. Moreover, the MIC in experiment [4] (pH 7) came out at 50 µg/mL; in experiment [4] (pH 7, value in brackets), 150 µM; in experiment [5] (pH 7) it was 50 µg/mL; in experiment [5] (pH 7, value in brackets), 150 µM; in experiment [6] (pH 7), 100 µg/mL; in experiment [6] (pH 7, value in brackets), 301 µM.
